“Also recorded” adds a separate entry of the source.
Experiments:
PPARα = target: T1, PPARα (Mus musculus, UniProt P23204)
T1 sequence (P23204 1-468): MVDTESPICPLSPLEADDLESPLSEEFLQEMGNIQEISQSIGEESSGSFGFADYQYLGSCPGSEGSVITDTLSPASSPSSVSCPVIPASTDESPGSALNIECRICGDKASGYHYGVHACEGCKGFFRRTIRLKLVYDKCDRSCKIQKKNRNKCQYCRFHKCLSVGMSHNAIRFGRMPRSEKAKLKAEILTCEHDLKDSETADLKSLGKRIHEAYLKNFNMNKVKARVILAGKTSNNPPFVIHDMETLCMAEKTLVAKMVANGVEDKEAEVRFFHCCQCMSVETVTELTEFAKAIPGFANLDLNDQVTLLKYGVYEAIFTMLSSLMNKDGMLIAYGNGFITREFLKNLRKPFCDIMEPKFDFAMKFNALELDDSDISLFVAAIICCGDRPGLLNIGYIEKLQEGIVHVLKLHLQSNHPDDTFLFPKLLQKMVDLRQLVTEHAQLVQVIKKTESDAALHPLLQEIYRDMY
Method: Cells were crosslinked with formaldehyde with a final concentration of 1% in media while shaking at room temperature for 10 min. The activity of the formaldehyde was quench with the addition of glycine while rocking for 5 min at room temperature. Cells were washed twice with 1×PBS, collected into a 15 ml conical tube and spun down at 3,000 rpm for 5 min. Pellets were rapidly frozen on dry ice ethanol mix and stored at −80° C. for a minimum of 1 hour or immediately resuspended in a series of lysis buffers (see table for ChIP buffer table) containing protease inhibitors for 5 min. Cells were sonicated for approximately 8 min per sample. The lysates were centrifuged for 10 min at 4° C. at 13,000 rpm. The lysates were pre-cleared in BSA/Salmon sperm blocked beads rotating for 2 hours at 4° C. […] Lysates were then incubated with Agarose A beads and rotated for 4 hours at 4° C. The samples were then washed with a ChIP washing buffer (see table for ChIP buffer table) 5 times. The protein was eluted in an Elution buffer at 65° C. for 30 min shaking every 2 min. The eluted samples were transferred to another tube and incubated at 65° C. overnight to reverse crosslinking. The samples were purified after 1-hour incubation with Proteinase K at 55° C. with a isopropanol/chloroform/ethanol mixture. DNA was quantified on a NanoDrop 2000 spectrophotometer (Thermo Fisher Scientific, Wilmington, DE). PCR amplification of the genomic DNA was performed by quantitative real-time PCR using TrueAmp SYBR Green qPCR SuperMix (Advance Bioscience). The thermocycling protocol consisted of 2 min at 50° C. and then 10 min at 95° C., 48 cycles of 30 sec at 95° C., 1 min at 65° C.

BAT cells [1] = test: SeaHorse analysis in murine BAT cell line (wild-type); format: cell-based
BAT cells [2] = test: Real-time PCR in differentiated BAT cells; format: cell-based, murine; settings: 50 μM biliverdin, 50 μM WY14,463, 10 μM rosiglitazone, 24 hrs
Method: Total RNA was extracted from mouse tissues using the miRNeasy Mini Kit (Qiagen). Total RNA was read on a NanoDrop 2000 spectrophotometer (Thermo Fisher Scientific, Wilmington, DE) and cDNA was synthesized using High Capacity cDNA Reverse Transcription Kit (Applied Biosystems). PCR amplification of the cDNA was performed by quantitative real-time PCR using TrueAmp SYBR Green qPCR SuperMix (Advance Bioscience). The thermocycling protocol consisted of 3 min at 95° C., 48 cycles of 15 sec at 95° C., 30 sec at 60° C., and based on primer size 0 to 30 sec at 72° C. and finished with a melting curve ranging from 60-95° C. to allow distinction of specific products. Normalization was performed in separate reactions with primers to 36B4.

[3] = test system: BAT PPARα CRISPR KO cells; test: Seahorse analysis in BAT PPARα CRISPR KO cells; format: cell-based, mouse; settings: both KO clones, 24 hours
From the text: To further delineate the actions of bilirubin on BAT, CRISPR technology was developed to knockout (KO) PPARα and establish two null clone lines. […]. The function of the ligands was lost in both clones for the BAT PPARα CRISPR KO cells.
CRISPR-Technology was employed in BAT as previously described to excise part of Exon 3 and Exon 4 of the PPARα gene to create a PPARα Knockout BAT cell line. Two sgRNAs with high efficacy and low off-target scores were identified on Exon 3 and 4 of the mouse PPARα gene using Benchling online software. The two Cas9 targets were separated by 9,465 bases. All of the off-targets to our PPARα sgRNA had 4 mismatches, of which at least 1-2 were within the seed region (up to 12 bases proximal to the protospacer adjacent motif (PAM) site) which reduces the likelihood of Cas9 off-target effects. The multiplex sgRNAs were generated using the PrecisionX Multiplex gRNA Cloning Kit according to manufacturer instructions. […] After 36 h of transfection, cells with the top 10% level of fluorescence were single-sorted into 96-well plates by fluorescent activated cell sorting. […]
Cellular respiration was quantified using the Seahorse Extracellular Flux Analyzer XF-96 (Agilent Technologies, Cedar Creek, TX). […] The oxygen consumption rate (OCR) and extracellular acidification rate (ECAR) were used to quantify the cellular energy phenotype of the cells. […]

- PPARα occupancy at the 13K enhancer of the Ucp1 (PPARα; 50 μM, 24 hours): significantly increased
- PPARα occupancy at the −3306 to −3109 region of the Cpt1 promoter (PPARα; 50 μM, 24 hours): significantly increased
- occupancy of PPARα at 13K enhancer of the Ucp1 (PPARα; BAT cells): increased
- occupancy of PPARα at the Cpt1 promoter (PPARα; BAT cells): increased
- occupancy of PPARα at the enhancer region of the Adrb3 promoter (PPARα; BAT cells): intensified
SMILES: C=CC1=C(C)/C(=C/C2=NC(=C\c3[nH]c(/C=C4\NC(=O)C(C)=C4C=C)c(C)c3CCC(=O)O)/C(CCC(=O)O)=C2C)NC1=O [biliverdin]
- mitochondrial function (BAT cells [1]; BAT cells): increasing
- proton leak (BAT cells [1]; BAT cells): stimulated
- ATP production (BAT cells [1]; WT BAT cells, 24 hours): increased; also recorded: stimulated
- basal respiration (OCR) (BAT cells [1]; WT BAT cells, 24 hours): increased
- maximum respiration (OCR) (BAT cells [1]; WT BAT cells, 24 hours): increased; also recorded: significantly higher
- Adrb3 mRNA (BAT cells [2]): significant increase; also recorded: only significantly higher
- Ucp1 mRNA (BAT cells [2]): significant increase
- function of the ligands on mitochondrial function (OCR) [3]: lost

— patent publication US20250281460A1, “PEGYLATED BILIRUBIN FOR THE TREATMENT OF […], OBESITY, FATTY LIVER DISEASE, CARDIOVASCULAR DISEASES AND TYPE II DIABETES” (The University of Toledo, priority 2019, published 2025)
